In ChEMBL document CHEMBL3351829, “Nostosins, Trypsin Inhibitors Isolated from the Terrestrial Cyanobacterium Nostoc sp. Strain FSN” (J Nat Prod, 2014):

Columns and labels:
Trypsin (Sus scrofa) = Trypsin (Sus scrofa) (UniProt P00761); experiment: (§1) Inhibition of pig pancreas trypsin type IX-S using Boc-Gln-Ala-Arg-MCA substrate by 7-amino-4-methylcoumarin release based spectrofluorometry; settings: TDE = time-dependent effect
Trypsin [1] = biological target: T1, Trypsin (Sus scrofa, UniProt P00761); experiment: as §1
Trypsin [2] = biological target: T1, Trypsin; experiment: Inhibition of pig pancreas trypsin type IX-S

T1 sequence (P00761 whole entry): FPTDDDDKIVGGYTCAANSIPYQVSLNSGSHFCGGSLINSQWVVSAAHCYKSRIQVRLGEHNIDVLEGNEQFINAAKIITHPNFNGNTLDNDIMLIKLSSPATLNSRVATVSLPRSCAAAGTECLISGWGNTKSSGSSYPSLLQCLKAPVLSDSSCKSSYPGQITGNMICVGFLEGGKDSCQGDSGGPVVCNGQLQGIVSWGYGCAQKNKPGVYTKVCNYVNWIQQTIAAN
Trypsin (Sus scrofa), sequence (P00761 whole entry): as above

| inhibition (Trypsin (Sus scrofa)) | IC50 (Trypsin [1]) [nM] | IC50 (Trypsin [2]) [nM] | SMILES |
| --- | --- | --- | --- |
| tde | 350 |  | CC[C@H](C)[C@H](NC(=O)C(O)CCc1ccc(O)cc1)C(=O)N[C@H](C=O)CCCNC(=N)N (some centres not stated) |
| tde | 55000 |  | CC[C@H](C)[C@H](NC(=O)C(O)CCc1ccc(O)cc1)C(=O)N[C@H](CO)CCCNC(=N)N (some centres not stated) |
|  | 500 | > 200 | CC(=O)N[C@@H](CC(C)C)C(=O)N[C@@H](CC(C)C)C(=O)N[C@H](C=O)CCCNC(=N)N [LEUPEPTIN] |
|  | < 100 |  | C[C@H]1C[C@@H](C(=O)NC(C=O)CCCNC(=N)N)N(C(=O)[C@@H](CCc2ccc(O)cc2)NC(=O)[C@H](O)Cc2ccc(O)cc2)C1 (some centres not stated) [SPUMIGIN E] |
